# Experimental data as given in PubChem BioAssay (NCI).
#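 Compound exposure: 48 hours, 5 concentrations, 96-well plates. GI50 = concentration required for 50% inhibition of growth. TGI marks complete inhibition of growth.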 Where a SMILES comes first, the peptide text is derived from it. The star is where a group is joined. Cbz = O=C(OCc1ccccc1)*; Bn = c1ccc(C*)cc1
# How the values were obtained:
# Test in all cases: NCI tumour cell line growth inhibition, 48 h
# DLD-1 colon = test system: DLD-1 colon
# DMS 114 small cell lung = test system: DMS 114 small cell lung
# DMS 273 small cell lung = test system: DMS 273 small cell lung
# HOP-92 NSCLC = test system: HOP-92 NSCLC
# KM20L2 colon = test system: KM20L2 colon
# M19-MEL melanoma = test system: M19-MEL melanoma
# HOP-18 NSCLC = test system: HOP-18 NSCLC
# DU-145 prostate = test system: DU-145 prostate
# MCF7 breast = test system: MCF7 breast
# MDA-MB-231 breast = test system: MDA-MB-231 breast
# MDA-N = test system: MDA-N
# NCI/ADR-RES ovarian = test system: NCI/ADR-RES ovarian
# PC-3 prostate = test system: PC-3 prostate
# T-47D breast = test system: T-47D breast
Structure (SMILES),TGI (DLD-1 colon),TGI (DMS 114 small cell lung),TGI (DMS 273 small cell lung),TGI (HOP-92 NSCLC),TGI (KM20L2 colon),TGI (M19-MEL melanoma),TGI (HOP-18 NSCLC),TGI (DU-145 prostate),TGI (MCF7 breast),TGI (MDA-MB-231 breast),TGI (MDA-N),TGI (NCI/ADR-RES ovarian),TGI (PC-3 prostate),TGI (T-47D breast),other results
O=C1c2cccc(O)c2C(=O)c2c(O)cccc21,> 100 µM,> 100 µM,> 100 µM,> 100 µM,> 100 µM,24.3 µM,–,–,–,–,–,–,–,–,–
CC1C[C@]2(C[C@@H](C)C(=O)O2)OC2CC3(C)C4CCC5C(C)(C)OC(=O)CC[C@@]56C[C@@]46CC[C@]3(C)C12 (stereo partly specified),> 100 µM,> 100 µM,> 100 µM,> 100 µM,–,–,> 100 µM,–,–,–,–,–,–,–,–
C=CCOCCC(CC=C)C(=O)CC(=O)OC (stereo unspecified),> 100 µM,–,> 100 µM,> 100 µM,> 100 µM,–,> 100 µM,–,–,–,–,–,–,–,–
COC(=O)C(Cc1ccc(O)cc1)NC(=O)C(COCc1ccccc1)NC(=O)OCc1ccccc1 (stereo unspecified) (Cbz-Ser(Bn)-Tyr-OMe; configuration not given here),–,–,–,60.8 µM,–,–,–,31.8 µM,36.6 µM,33.1 µM,31.4 µM,38.8 µM,33.3 µM,39.5 µM,–
C1CSCCSCSCCS1,–,–,–,> 100 µM,–,–,–,> 100 µM,> 100 µM,> 100 µM,> 100 µM,> 100 µM,> 100 µM,> 100 µM,–
c1ccc(-c2n(Cc3ccc4ccccc4c3)c3ccccc3[n+]2Cc2ccc3ccccc3c2)cc1,–,–,–,0.508 µM,–,–,–,1.64 µM,–,1.3 µM,–,5.93 µM,1.13 µM,–,GI50 (DU-145 prostate): 0.441 µM; GI50 (HOP-92 NSCLC): 0.117 µM; GI50 (MDA-MB-231 breast): 0.289 µM; GI50 (NCI/ADR-RES ovarian): 2.21 µM; GI50 (PC-3 prostate): 0.27 µM
NC(=O)c1ccc([N+](=O)[O-])cc1,> 100 µM,> 100 µM,> 100 µM,–,> 100 µM,> 100 µM,–,–,–,–,–,–,–,–,–
NC(CCP(=O)(O)O)C(=O)O (stereo unspecified),–,–,–,> 100 µM,–,–,–,–,–,> 100 µM,> 100 µM,> 100 µM,> 100 µM,> 100 µM,–
CCn1c(=O)c(C(=O)O)c(Cl)c2cc3c(cc21)OCO3,> 100 µM,–,> 100 µM,> 100 µM,> 100 µM,> 100 µM,> 100 µM,–,> 100 µM,–,–,> 100 µM,–,–,–
O=C(Nc1ccc(Cl)cc1)c1cc([N+](=O)[O-])ccc1O,> 100 µM,6.75 µM,20 µM,–,> 50.9 µM,23.5 µM,7.16 µM,–,–,–,–,–,–,–,–
COc1ccc(N2C(=O)/C(=C\c3ccccc3)SC2c2cc(OC)c(OC)c(OC)c2)cc1 (stereo unspecified),–,–,–,> 100 µM,–,–,–,–,> 100 µM,> 100 µM,44.8 µM,> 100 µM,> 100 µM,> 100 µM,–
COc1ccc(-c2oc3cc(OC(C)=O)cc(OC(C)=O)c3c(=O)c2OC)cc1,–,–,–,–,–,–,–,45.2 µM,48.4 µM,63.7 µM,28.3 µM,36 µM,59 µM,57.9 µM,–
N=C(N)c1ccc(-c2ccc(-c3ccc4ccccc4c3)s2)s1,–,–,–,–,–,–,–,3.44 µM,–,3.73 µM,–,–,4.87 µM,4.52 µM,GI50 (DU-145 prostate): 1.83 µM; GI50 (MDA-MB-231 breast): 1.85 µM; GI50 (PC-3 prostate): 2.19 µM; GI50 (T-47D breast): 1.95 µM
CS(=O)(=O)c1ccc2nc(-c3ccc(O)cc3)sc2c1,–,–,–,–,–,–,–,29.6 µM,35.5 µM,42.5 µM,34.4 µM,36.2 µM,32.1 µM,–,–
CC(=O)OCC1OC(NC(=O)N(CCCl)N=O)C(OC(C)=O)C(OC(C)=O)C1OC(C)=O (stereo unspecified),> 100 µM,> 100 µM,> 100 µM,> 100 µM,> 100 µM,> 100 µM,> 100 µM,–,> 100 µM,–,–,> 100 µM,–,–,–
C[n+]1c2ccccc2c(CNCC(=O)O)c2ccccc21,2 µM,4.83 µM,2.74 µM,10.4 µM,2.44 µM,16.5 µM,22.6 µM,–,–,–,–,–,–,–,–
